Measured values published in patent publication US20080176932A1, “Pharmaceutical Compositions Containing Baicalein And Baicalin With Synergistic Effect In Tumor Treatment” (priority 2005, published 2008).
Like-named read-outs stand apart in the source and are kept apart here.

Columns and labels:
[1] = test system: human liver cancer cell line HepG2; test: MTT growth inhibition, baicalein and baicalin single or combination; type: cell-based
Excerpt: The results of experiments with human liver cancer cell line HepG2 are illustrated in Table 1;

[2] = test system: Human leukemia cell line HL60; test: MTT growth inhibition, baicalein and scutellarin single or combination; type: cell-based
[3] = test system: Human prostate cancer cell line PC3
[4] = test system: Human gastric cancer cell line MKN28; test: MTT growth inhibition, baicalein and scutellarin single or combination; type: cell-based
L1210 cells [5] = type: in vivo; conditions: B 30 mg/kg i.p., day 1-10
Procedure: (§1) L1210 cells on the growth phase were injected at 1×10^5 cells via I.P. into BDF1 female mice (weight approximately 20 g). The next day of implantation, mice were grouped, and received an injection of 0.1 ml/10 g weight of the drug. […] The number of mice of each group was 10. Mice were weighed before and after the treatment. Survival time of each mouse was recorded. The results of changes in increasing of life span of mice were used in assessment of response. The increase of life span was determined as; increase of life span rate=(median survival time of treated animals/median survival time of control animals−1)×100%, the data were analyzed by t-test.

[6] = test system: Human gastric cancer cell line MKN28; test: MTT growth inhibition, baicalein and baicalin single or combination; type: cell-based
Excerpt: Human gastric cancer cell line MKN28—Table 4;

[7] = test system: Murine melanoma cell line B 16; test: Solid tumor transplant model, baicalein and baicalin; type: in vivo; conditions: B16 mice, B 30 mg/kg i.p., day 1-10
Procedure: (§2) C57BL/6 female mice (weight approximately 20 g) were used in this study. Murine melanoma cell line B 16 cells, 2×10^6 tumor cells were implanted s.c. into the armpit of each mice after two passenges in vitro cultured. On the next day after implantation, mice were randomly grouped at 10 per group and received 0.1 ml/10 g weight of the drugs. […] The number of mice of each group was 10. Mice were weighed before and post the treatment. Animals were killed on day 15, and the tumors were removed and weighted.

[8] = test system: Human leukemia cell line HL60; test: MTT growth inhibition, baicalein and baicalin single or combination; type: cell-based
Excerpt: Human leukemia cell line HL60—Table 8.

[9] = test system: Murine melanoma cell line B 16; test: Solid tumor transplant model, baicalein and scutellarin; type: in vivo, C57BL/6 female mice; conditions: B16 mice, B 30 mg/kg i.p., day 1-10
Procedure: as §2, with “0.1ml/10” for “0.1 ml/10”

[10] = test system: human liver cancer cell line HepG2; test: MTT growth inhibition, baicalein and scutellarin single or combination; type: cell-based
[11] = test system: Human colon cancer cell line HCT116; test: as above; type: cell-based
[12] = test system: Human hung cancer cell line A549; test: as above; type: cell-based
[13] = test system: Human breast cancer cell line MCF-7; test: as above; type: cell-based
Procedure: (§3) Cells were seeded onto 96-well plate at 5×10^3 cells/well, and grown in culture medium containing 10% fetal bovine serum (FBS). […] The viable cell growth was determined by MTT assay after 72-h continuous exposure.
(§4) A CI below 1 is an indication of synergy, while a CI equal to 1 represents addition, and a CI above 1 indicates antagonism.

[14] = test system: Human prostate cancer cell line PC3; test: as above; type: cell-based
Procedure: as §3, §4

[15] = test system: Human esophagus cancer cell line TE2; test: as above; type: cell-based
Procedure: as §3, §4

[16] = test system: Human colon cancer cell line HCT116; test: MTT growth inhibition, baicalein and baicalin single or combination; type: cell-based
Excerpt: Human colon cancer cell line HCT116—Table 2;

[17] = test system: Human esophagus cancer cell line TE2
[18] = test system: Human breast cancer cell line MCF-7
[19] = test system: Human hung cancer cell line A549; test: MTT growth inhibition, baicalein and baicalin single or combination; type: cell-based
Excerpt: Human hung cancer cell line A549—Table 3;

L1210 cells [20] = type: in vivo; conditions: B 30 mg/kg i.p., day 1-10; remark: listed apart in the source
Procedure: as §1

## O=c1cc(-c2ccccc2)oc2cc(O)c(O)c(O)c12 [B, baicalein]
[1]; single dose 2.5 μm
  Inhibition of cell growth (%): 7.4 ± 2%
[1]; single dose 5 μm
  Inhibition of cell growth (%): 34.93 ± 3%
[1]; single dose 10 μm
  Inhibition of cell growth (%): 50.2 ± 3%
[1]; single dose 20 μm
  Inhibition of cell growth (%): 58.5 ± 2.5%
[1]; single dose 40 μm
  Inhibition of cell growth (%): 89.18 ± 2%
[2]; single dose 2.5 μm
  Inhibition of cell growth (%): 7.5 ± 2.7%
[2]; single dose 5 μm
  Inhibition of cell growth (%): 22.7 ± 2.2%
[2]; single dose 10 μm
  Inhibition of cell growth (%): 41.8 ± 2.7%
[2]; single dose 20 μm
  Inhibition of cell growth (%): 60.6 ± 3.2%
[2]; single dose 40 μm
  Inhibition of cell growth (%): 89.18 ± 2.1%
[3]; single dose 2.5 μm
  Inhibition of cell growth (%): 7.2 ± 5%
[3]; single dose 5 μm
  Inhibition of cell growth (%): 22.8 ± 6%
[3]; single dose 10 μm
  Inhibition of cell growth (%): 50.9 ± 5%
[3]; single dose 20 μm
  Inhibition of cell growth (%): 69.9 ± 5%
[3]; single dose 40 μm
  Inhibition of cell growth (%): 92.9 ± 7%
[4]; single dose 2.5 μm
  Inhibition of cell growth (%): 16.5 ± 1.1%
[4]; single dose 5 μm
  Inhibition of cell growth (%): 27.7 ± 2.1%
[4]; single dose 10 μm
  Inhibition of cell growth (%): 42.8 ± 2.3%
[4]; single dose 20 μm
  Inhibition of cell growth (%): 65.6 ± 3%
[4]; single dose 40 μm
  Inhibition of cell growth (%): 80.21 ± 2.5%
L1210 cells [5]
  Number of mice Surviving through 15 days/total number: 10/10
L1210 cells [5]; L1210 mice
  ILS(%) increase of life span: 31.6%
[6]; single dose 2.5 μm
  Inhibition of cell growth (%): 7.7 ± 3%
[6]; single dose 5 μm
  Inhibition of cell growth (%): 37.11 ± 2.9%
[6]; single dose 10 μm
  Inhibition of cell growth (%): 53 ± 3.2%
[6]; single dose 20 μm
  Inhibition of cell growth (%): 58 ± 2%
[6]; single dose 40 μm
  Inhibition of cell growth (%): 77 ± 3%
[7]; day 15
  Final Tumor WT. (g) Mean ± SD: 1.72 ± 0.09 g
  Tumor Growth Inhibition %: 21.1%
[7]
  Weight Change %: <5%
[8]; single dose 2.5 μm
  Inhibition of cell growth (%): 6.5 ± 2%
[8]; single dose 5 μm
  Inhibition of cell growth (%): 21.8 ± 3%
[8]; single dose 10 μm
  Inhibition of cell growth (%): 41.32 ± 2.7%
[8]; single dose 20 μm
  Inhibition of cell growth (%): 67.6 ± 3.2%
[8]; single dose 40 μm
  Inhibition of cell growth (%): 86.77 ± 3.3%
[9]; day 15
  Final Tumor WT. (g) Mean ± SD: 1.72 ± 0.09 g
  Tumor Growth Inhibition %: 21.1%
[9]
  Number of mice through 15 days/total number: 10/10
  Weight Change %: <5%
[10]; single dose 2.5 μm
  Inhibition of cell growth (%): 7.35 ± 2.2%
[10]; single dose 5 μm
  Inhibition of cell growth (%): 32.7 ± 2.3%
[10]; single dose 10 μm
  Inhibition of cell growth (%): 49.8 ± 2.1%
[10]; single dose 20 μm
  Inhibition of cell growth (%): 58.5 ± 1.2%
[10]; single dose 40 μm
  Inhibition of cell growth (%): 90.18 ± 2.5%
[11]; single dose 2.5 μm
  Inhibition of cell growth (%): 5.8 ± 2%
[11]; single dose 5 μm
  Inhibition of cell growth (%): 10.5 ± 2.3%
[11]; single dose 10 μm
  Inhibition of cell growth (%): 29.2 ± 2.7%
[11]; single dose 20 μm
  Inhibition of cell growth (%): 47 ± 3.1%
[11]; single dose 40 μm
  Inhibition of cell growth (%): 91.15 ± 2.5%
[12]; single dose 2.5 μm
  Inhibition of cell growth (%): 10.55 ± 1.2%
[12]; single dose 5 μm
  Inhibition of cell growth (%): 17.19 ± 2.2%
[12]; single dose 10 μm
  Inhibition of cell growth (%): 40.8 ± 3.2%
[12]; single dose 20 μm
  Inhibition of cell growth (%): 62.5 ± 2%
[12]; single dose 40 μm
  Inhibition of cell growth (%): 90.18 ± 2.1%
[13]; single dose 2.5 μm
  Inhibition of cell growth (%): 0.8 ± 2%
[13]; single dose 5 μm
  Inhibition of cell growth (%): 13.02 ± 2.5%
[13]; single dose 10 μm
  Inhibition of cell growth (%): 51.02 ± 2.2%
[13]; single dose 20 μm
  Inhibition of cell growth (%): 64.35 ± 2.2%
[13]; single dose 40 μm
  Inhibition of cell growth (%): 93 ± 2.5%
[14]; single dose 2.5 μm
  Inhibition of cell growth (%): 7.2 ± 5%
[14]; single dose 5 μm
  Inhibition of cell growth (%): 22.8 ± 6%
[14]; single dose 10 μm
  Inhibition of cell growth (%): 50.9 ± 5%
[14]; single dose 20 μm
  Inhibition of cell growth (%): 69.9 ± 5%
[14]; single dose 40 μm
  Inhibition of cell growth (%): 92.9 ± 7%
[15]; single dose 2.5 μm
  Inhibition of cell growth (%): 5 ± 2%
[15]; single dose 5 μm
  Inhibition of cell growth (%): 16.8 ± 1.2%
[15]; single dose 10 μm
  Inhibition of cell growth (%): 38.4 ± 2.1%
[15]; single dose 20 μm
  Inhibition of cell growth (%): 66.85 ± 2%
[15]; single dose 40 μm
  Inhibition of cell growth (%): 83.1 ± 2.1%
[16]; single dose 2.5 μm
  Inhibition of cell growth (%): 5.8 ± 2%
[16]; single dose 5 μm
  Inhibition of cell growth (%): 20.5 ± 3%
[16]; single dose 10 μm
  Inhibition of cell growth (%): 29.2 ± 3%
[16]; single dose 20 μm
  Inhibition of cell growth (%): 41 ± 2.7%
[16]; single dose 40 μm
  Inhibition of cell growth (%): 89.15 ± 3%
[17]; single dose 2.5 μm
  Inhibition of cell growth (%): 5.5 ± 1%
[17]; single dose 5 μm
  Inhibition of cell growth (%): 17.2 ± 2.8%
[17]; single dose 10 μm
  Inhibition of cell growth (%): 28 ± 2%
[17]; single dose 20 μm
  Inhibition of cell growth (%): 57.9 ± 2.1%
[17]; single dose 40 μm
  Inhibition of cell growth (%): 85.2 ± 2.3%
[18]; single dose 2.5 μm
  Inhibition of cell growth (%): 7.2 ± 2%
[18]; single dose 5 μm
  Inhibition of cell growth (%): 27.55 ± 2%
[18]; single dose 10 μm
  Inhibition of cell growth (%): 51 ± 3%
[18]; single dose 20 μm
  Inhibition of cell growth (%): 71.77 ± 2.5%
[18]; single dose 40 μm
  Inhibition of cell growth (%): 90.5 ± 2.5%
[19]; single dose 2.5 μm
  Inhibition of cell growth (%): 13.5 ± 4%
[19]; single dose 5 μm
  Inhibition of cell growth (%): 17.18 ± 3%
[19]; single dose 10 μm
  Inhibition of cell growth (%): 39.2 ± 2%
[19]; single dose 20 μm
  Inhibition of cell growth (%): 63.85 ± 3.2%
[19]; single dose 40 μm
  Inhibition of cell growth (%): 96.41 ± 2%
L1210 cells [20]
  Number of mice Through surviving 15 days/total number: 10/10
L1210 cells [20]; L1210 mice
  ILS(%) increase of life span: 31.6%
